Among the data in US7902186B2, “Substituted 5-phenyl-3,6-dihydro-2-oxo-6H-1,3,4-thiadiazines” (Merck Patent GmbH, priority 2005, dated 2011) are IC50 values, retold here.

Each structure is given as a SMILES string.

In this experiment the target is T1, Met kinase (Homo sapiens, UniProt P08581).
T1 construct: 6His (N); purchased Upstate 14-526; host or cells: Sf21 insect cells (S. frugiperda), baculovirus
Description: Met kinase inhibition, flashplate method. As to conditions: 33P-ATP, substrate pAGLT, 3 hrs at room temperature, read-out: IC50 (enzyme). Type of experiment: biochemical. The source says: Measurement of Met Kinase Activity
According to the manufacturer's data (Met, active, upstate, catalogue No. 14-526), Met kinase is expressed for the purposes of protein production in insect cells (Sf21; S. frugiperda) and subsequent affinity-chromatographic purification as “N-terminal 6His-tagged” recombinant human protein in a baculovirus expression vector.
Flashplate Method (Met Kinase)
The test plates used are 96-well Flashplate® microtitre plates from Perkin Elmer (Cat. No. SMP200). The components of the kinase reaction described below are pipetted into the assay plate. The Met kinase and the substrate poly Ala-Glu-Lys-Tyr, (pAGLT, 6:2:5:1), are incubated for 3 hrs at room temperature with radioactively labelled ^33P-ATP in the presence and absence of test substances in a total volume of 100 μl. The reaction is terminated using 150 μl of a 60 mM EDTA solution. After incubation for a further 30 min at room temperature, the supernatants are filtered off with suction, and the wells are washed three times with 200 μl of 0.9% NaCl solution each time. The measurement of the bound radioactivity is carried out by means of a scintillation measuring instrument (Topcount NXT, Perkin-Elmer).
The full value used is the inhibitor-free kinase reaction. This should be approximately in the range 6000-9000 cpm. The pharmacological zero value used is staurosporin in a final concentration of 0.1 mM. The inhibitory values (IC50) are determined using the RS1_MTS program.
Kinase Reaction Conditions Per Well:
• 30 μl of assay buffer • 10 μl of substance to be tested in assay buffer with 10% of DMSO • 10 μl of ATP (final concentration 1 μM cold, 0.35 μCi of ^33P-ATP) • 50 μl of Met kinase/substrate mixture in assay buffer; • (10 ng of enzyme/well, 50 ng of pAGLT/well)
Assay Buffer: • 50 mM HEPES • 3 mM magnesium chloride • 3 μM sodium orthovanadate • 3 mM manganese(II) chloride • 1 mM dithiothreitol (DTT) • pH=7.5 (to be set using sodium hydroxide)
Stop Solution: • 60 mM Titriplex III (EDTA)
^33P-ATP: Perkin-Elmer; • Met kinase: Upstate, Cat. No. 14-526, Stock 1 μg/10 μl; spec. activity 954 U/mg; • Poly-Ala-Glu-Lys-Tyr, 6:2:5:1: Sigma Cat. No. P1152

T1 sequence (P08581 974-1390 limits assumed): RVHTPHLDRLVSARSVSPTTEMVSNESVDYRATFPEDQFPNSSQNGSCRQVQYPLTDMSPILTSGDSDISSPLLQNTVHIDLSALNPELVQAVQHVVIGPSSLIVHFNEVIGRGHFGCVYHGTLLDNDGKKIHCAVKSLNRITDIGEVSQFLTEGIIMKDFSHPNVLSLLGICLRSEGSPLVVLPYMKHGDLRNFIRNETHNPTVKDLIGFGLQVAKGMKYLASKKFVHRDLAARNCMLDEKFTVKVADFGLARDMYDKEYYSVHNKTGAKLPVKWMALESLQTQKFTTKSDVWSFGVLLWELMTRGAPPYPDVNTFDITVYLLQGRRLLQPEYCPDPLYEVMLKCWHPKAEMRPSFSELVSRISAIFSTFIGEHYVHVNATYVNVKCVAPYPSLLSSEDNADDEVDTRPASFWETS

As for `CN(C)CCCOC(=O)Nc1cccc(CN2N=C(c3ccc(C#N)cc3)CSC2=O)c1` [Compound A20], the IC50 was in the range of 10 to 1000 nM.
As for `O=C(Nc1cccc(CN2N=C(c3ccccc3O)CSC2=O)c1)c1cccnc1` [Compound B6], the IC50 lay in the range of 10 to 1000 nM.
`CN(C)CCCOC(=O)Nc1cccc(CN2N=C(c3ccccc3F)CSC2=O)c1` [Compound A12]: the IC50 is 10 to 1000 nM.
As for `O=C(Nc1cccc(CN2N=C(c3cc(Cl)ccc3O)CSC2=O)c1)c1cccnc1` [Compound B4], the figure is 10 to 1000 nM.
As for `COc1ccccc1C1=NN(Cc2cccc(NC(=O)OCCCN(C)C)c2)C(=O)SC1` [Compound A17], the IC50 was in the range of 10 to 1000 nM.
Under `CN(C)CCCOC(=O)Nc1cccc(CN2N=C(c3ccc(Cl)cc3)CSC2=O)c1` [Compound A6] stands 10 to 1000 nM; under `CCOC(=O)Nc1cccc(CN2N=C(c3ccc(Cl)cc3)CSC2=O)c1` [Compound A7], 10 to 1000 nM; under `CNCC(=O)Nc1cccc(CN2N=C(c3cc(Cl)ccc3O)CSC2=O)c1` [Compound B1, N-{3-[5-(5-chloro-2-hydroxyphenyl)-2-oxo-6H-1,3,4-thiadiazin-3-ylmethyl]phenyl}-2-methylaminoacetamide], 10 to 1000 nM.
On to `CC(c1cccc(NC(=O)OCCCN2CCOCC2)c1)N1N=C(c2ccc(F)c(F)c2)CSC1=O` (stereo not shown) [Compound A29], for which the concentration for half-maximal inhibition (IC50) lay in the range of 10 to 1000 nM.
Turning to `CC(c1cccc(NC(=O)OCCCN2CCN(C)CC2)c1)N1N=C(c2ccc(F)c(F)c2)CSC1=O` (stereo not shown) [Compound A30], the half-maximal inhibitory concentration (IC50) was 10 to 1000 nM.
With `CCNCCCOC(=O)Nc1cccc(CN2N=C(c3ccc(C#N)cc3)CSC2=O)c1` [Compound A33], the IC50 lay in the range of 10 to 1000 nM.
Under `CN(C)CCCOC(=O)Nc1cccc(CN2N=C(c3cccc(F)c3)CSC2=O)c1` [Compound A11] stands 10 to 1000 nM; under `CC(c1cccc(NC(=O)OCCCN(C)C)c1)N1N=C(c2ccc(F)c(F)c2)CSC1=O` (stereo not shown) [Compound A31], 10 to 1000 nM.

As usually defined, the IC50 is the concentration needed to halve the response being measured.
